How the values were obtained:
C. elegans = details: in vivo
Method: Background: First, acute toxicity assays were performed to test the toxicity of the compounds in adult worms by simulating the actual conditions of the lifespan assay. This accomplished two things. First, in the early stages it determines doses that are acutely toxic to adult worms. Second, over time the worms are scored to rule out doses that despite low initial toxicity, will likely have a negative impact on lifespan. Worms are plated on the exact media and sealed plates that will be used in the lifespan assay and then incubated at 25°C to provide a pilot lifespan that helps catch any other dosing and delivery pitfalls early. Adult worms were monitored in the days immediately following exposure for lethality or any other obvious defects.
Results: Worms were treated with either vehicle control or Compound 4 at concentrations of 50nM, 500nM, 5µM, 50µM, and 500µM. […] The exception is that the worms are incubated at 25°C instead of 20°C to accelerate the aging process. […] Worms were then scored periodically for early deaths. Worms treated with 5 µM Compound 4 or higher concentrations began to decline faster than vehicle control-treated worms. As these doses would be unlikely to increase lifespan in an actual lifespan assay, this placed the upper boundary of effective concentrations between 500 nM and 5 µM (Figure 52 (B)). […]

STHdh 111/111 cells = assay: Gene expression (Nanostring nCounter Mouse Neuropathology Panel); format: cell-based
Method: (§1) Gene expression of certain transcripts of interest were measured using Nanostring Technology. […] Some STHdh 7/7 and STHdh 111/111 cell samples were not heat shocked and some wells were treated with Compound 22 at the indicated concentration on for 48 hours (Table 17). Some STHdh 7/7 and STHdh 111/111 cell samples were heat shocked for 3 hours some wells were treated with Compound 22 at the indicated concentration on for 48 hours (Table 18). Cells are washed with PBS, trypsinised, and gathered in a 15 ml falcon tube. After a short spin down for 3 minutes at 300 g, the cell pellet was washed with PBS once, before it was frozen down in liquid nitrogen. RNA was extracted with a standard protocol. The nCounter® Mouse Neuropathology Panel (Nanostring, Seattle) was used for gene expression analysis according to the manufacturer's protocols. Table 17. Cell samples that were not subject to heat shock treatment

STHdh 7/7 cells = assay: as above; format: cell-based; details: 10 µM or 20 µM, 48 h, in comparison to untreated cells
Method: as §1

[1] = treated STHdh 111/111 in comparison to untreated STHdh 111/111

Structure (SMILES) | concentration at which worms began to decline faster than vehicle control-treated worms (C. elegans) | Genes associated with the autophagy pathway (STHdh 111/111 cells; 10 µM or 20 µM, 48 h, in comparison to untreated cells) | NGFR expression increase (STHdh 111/111 cells; paragraph on the KCNA1 gene (Figure 25 (E)), treated versus untreated STHdh 111/111) | Slc32a1 expression upregulation (STHdh 111/111 cells; treated STHdh 111/111 (Q111-10) in comparison to untreated STHdh 111/111) | Olig2 expression (STHdh 111/111 cells; [1]) | Rasgrp1 expression downregulation (STHdh 111/111 cells; [1]) | NGFR expression increase (STHdh 111/111 cells; treated STHdh 111/111 in comparison to untreated STHdh 111/111 (Figure 25 (D))) | Genes associated with the autophagy pathway (STHdh 7/7 cells)
CCc1c(C)[nH]c2ccc(C(=O)NCCN(CC)CC)cc12 [Compound 4, N-(2-(diethylamino)ethyl)-3-ethyl-2-methyl-1H-indole-5-carboxamide] | ≥ 5 µM |  |  |  |  |  |  | 
Cc1[nH]c2ccc(C(=O)NCCN(C(C)C)C(C)C)cc2c1C [Compound 22] |  | upregulated | 68% | 12 fold | doubled | 29% | 60% | upregulated
